System: protease
Format: biochemical
Settings: pH 9

Row | Structure (SMILES) | Residual activity (4 weeks at 40° C.) [%] | Residual activity (2 weeks at 40° C.) [%]
1 | [Cl][Al]([Cl])[Cl] [Aluminium Chloride] | 16 | 
2 | Cl.N [Armonium Chloride] | 49 | 
3 | N.O=[N+]([O-])O [Armonium Nitrate] | 41 | 
4 | N.N.O=S(=O)(O)O [Armonium Sulfate] | 43 | 
5 | [Ca+2].[Cl-].[Cl-] [Calcium Chloride] | 22 | 
6 | [Cl-].[Cl-].[Mg+2] [Magnesium Chloride] | 79 | 
7 | O=[N+]([O-])[O-].O=[N+]([O-])[O-].[Mg+2] [Magnesium Nitrate] | 55 | 
8 | O=S(=O)([O-])[O-].[Mg+2] [Magnesium Sulfate] | 37 | 
9 | [Cl-].[K+] [Potassium Chloride] | 34 | 
10 | CC(=O)[O-].[Na+] [Sodium Acetate] | 20 | 
11 | O=C([O-])[O-].[Na+].[Na+] [Sodium Carbonate] | 15 | 
12 | [Cl-].[Na+] [Sodium Chloride] | 32 | 
13 | O=C([O-])CC(O)(CC(=O)[O-])C(=O)[O-].[Na+].[Na+].[Na+] [Sodium Citrate] | 1 | 
14 | O=C[O-].[Na+] [Sodium Formiate] | 29 | 
15 | O=[N+]([O-])[O-].[Na+] [Sodium Nitrate] | 20 | 
16 | O=P(O)(O)O [Sodium Phosphate] | 13 | 
17 | O=S(=O)([O-])[O-].[Na+].[Na+] [Sodium Sulfate] | 22 | 
18 | [Cl-].[Cl-].[Zn+2] [Zink Chloride] |  | 102
19 | O=S(=O)([O-])[O-].[Zn+2] [Zink Sulfate] |  | 88

Target: subtilisin (Bacillus licheniformis, UniProt P00780)
Settings: literature statement, Biochem. Biophys. Res. Com. 176, 1991; cited from earlier work

subtilisin, sequence (P00780 106-379): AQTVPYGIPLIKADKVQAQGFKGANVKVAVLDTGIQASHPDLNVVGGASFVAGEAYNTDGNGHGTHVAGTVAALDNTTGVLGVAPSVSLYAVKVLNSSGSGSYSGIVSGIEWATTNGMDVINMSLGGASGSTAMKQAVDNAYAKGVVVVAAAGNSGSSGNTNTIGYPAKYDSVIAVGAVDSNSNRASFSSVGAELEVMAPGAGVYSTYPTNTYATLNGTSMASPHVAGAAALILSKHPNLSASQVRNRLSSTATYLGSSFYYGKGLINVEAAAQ

Row | Structure (SMILES) | capacity as subtilisin inhibitor
20 | OB(O)c1cc(Cl)cc(Cl)c1 [3,5-dichlorophenylboronic acid] | particularly effective
21 | CB(O)O [methylboronic acid] | poorest inhibitor

From patent US11827866B2 (priority 2007, dated 2023)
